In ChEMBL document CHEMBL5653631, “A Potent and Selective ULK1 Inhibitor Suppresses Autophagy and Sensitizes Cancer Cells to Nutrient Stress” (iScience, 2018):
One block for each molecule: values may come before it.

Columns and labels:
[1] = biological target: Cyclin-dependent kinase 12 (Homo sapiens) (UniProt Q9NYV4); assay: Inhibition of human recombinant CRK7 at 500 nM in presence of ATP by radiometric assay relative to control
[2] = biological target: Serine/threonine-protein kinase Nek6 (Homo sapiens) (UniProt Q9HC98); assay: Inhibition of human recombinant NEK6 at 500 nM related to control ULK1
[3] = biological target: Mitogen-activated protein kinase 1 (Homo sapiens) (UniProt P28482); assay: Inhibition of human recombinant Erk2 at 500 nM in presence of ATP by radiometric assay relative to control
[4] = biological target: Macrophage-stimulating protein receptor (Homo sapiens) (UniProt Q04912); assay: Inhibition of human recombinant RON at 500 nM in presence of ATP by radiometric assay relative to control
[5] = biological target: T1, Tyrosine-protein kinase receptor TYRO3 (Homo sapiens) (UniProt Q06418); assay: Inhibition of human recombinant TYRO3 at 15 nM related to control ULK1
T1 sequence (whole entry): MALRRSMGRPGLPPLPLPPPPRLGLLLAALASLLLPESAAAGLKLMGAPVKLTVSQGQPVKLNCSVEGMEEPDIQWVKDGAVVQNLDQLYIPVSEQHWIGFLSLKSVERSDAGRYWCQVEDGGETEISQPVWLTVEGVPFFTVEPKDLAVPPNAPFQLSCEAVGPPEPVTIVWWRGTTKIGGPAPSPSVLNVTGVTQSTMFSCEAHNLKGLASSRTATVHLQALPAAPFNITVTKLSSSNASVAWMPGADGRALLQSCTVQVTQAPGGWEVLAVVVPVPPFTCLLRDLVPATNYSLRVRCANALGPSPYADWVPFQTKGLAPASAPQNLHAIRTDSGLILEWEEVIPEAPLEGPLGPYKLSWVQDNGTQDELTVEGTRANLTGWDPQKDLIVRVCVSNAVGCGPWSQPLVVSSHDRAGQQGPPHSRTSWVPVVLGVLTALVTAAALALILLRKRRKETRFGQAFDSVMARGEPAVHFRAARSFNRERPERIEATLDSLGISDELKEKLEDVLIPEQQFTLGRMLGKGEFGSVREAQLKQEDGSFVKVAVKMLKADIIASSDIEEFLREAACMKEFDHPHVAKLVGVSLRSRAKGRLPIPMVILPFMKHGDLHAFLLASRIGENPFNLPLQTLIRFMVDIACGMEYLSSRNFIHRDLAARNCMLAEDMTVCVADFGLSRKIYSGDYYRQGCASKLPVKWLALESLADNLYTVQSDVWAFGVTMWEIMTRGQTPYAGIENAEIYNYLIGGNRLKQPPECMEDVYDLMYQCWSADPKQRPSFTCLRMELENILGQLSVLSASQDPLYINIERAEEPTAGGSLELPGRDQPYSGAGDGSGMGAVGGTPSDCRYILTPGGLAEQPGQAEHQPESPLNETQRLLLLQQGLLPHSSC

[6] = biological target: Proto-oncogene tyrosine-protein kinase Src (Homo sapiens) (UniProt P12931); assay: Inhibition of human recombinant SRC at 15 nM in presence of ATP by radiometric assay relative to control
Sequence of Proto-oncogene tyrosine-protein kinase Src (Homo sapiens) (P12931 2-536 limits assumed): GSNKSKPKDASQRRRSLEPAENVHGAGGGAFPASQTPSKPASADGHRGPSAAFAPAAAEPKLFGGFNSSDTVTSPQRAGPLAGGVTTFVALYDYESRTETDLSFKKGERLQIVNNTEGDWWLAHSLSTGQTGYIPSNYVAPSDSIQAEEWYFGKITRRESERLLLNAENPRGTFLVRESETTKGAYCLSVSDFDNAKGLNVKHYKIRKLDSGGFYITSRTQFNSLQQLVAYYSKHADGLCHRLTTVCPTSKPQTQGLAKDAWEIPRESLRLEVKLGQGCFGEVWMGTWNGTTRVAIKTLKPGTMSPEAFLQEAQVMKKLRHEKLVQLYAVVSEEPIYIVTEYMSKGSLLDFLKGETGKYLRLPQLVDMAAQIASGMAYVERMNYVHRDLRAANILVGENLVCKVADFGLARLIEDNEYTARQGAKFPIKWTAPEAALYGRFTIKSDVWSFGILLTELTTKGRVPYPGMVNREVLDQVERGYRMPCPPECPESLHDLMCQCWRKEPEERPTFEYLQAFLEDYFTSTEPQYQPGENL

[7] = biological target: Focal adhesion kinase 1 (Homo sapiens) (UniProt Q05397); assay: Inhibition of human recombinant FAK at 40 nM in presence of ATP by radiometric assay relative to control
[8] = biological target: Serine/threonine-protein kinase mTOR (Homo sapiens) (UniProt P42345); assay: Inhibition of human recombinant FRAP at 40 nM in presence of ATP by radiometric assay relative to control
[9] = biological target: Mitogen-activated protein kinase kinase kinase kinase 4 (Homo sapiens) (UniProt O95819); assay: Inhibition of human recombinant HGK at 40 nM related to control ULK1
[10] = biological target: Serine/threonine-protein kinase tousled-like 2 (Homo sapiens) (UniProt Q86UE8); assay: Inhibition of human recombinant TLK2 at 40 nM in presence of ATP by radiometric assay relative to control
Sequence of Serine/threonine-protein kinase tousled-like 2 (Homo sapiens) (Q86UE8 whole entry, looked up): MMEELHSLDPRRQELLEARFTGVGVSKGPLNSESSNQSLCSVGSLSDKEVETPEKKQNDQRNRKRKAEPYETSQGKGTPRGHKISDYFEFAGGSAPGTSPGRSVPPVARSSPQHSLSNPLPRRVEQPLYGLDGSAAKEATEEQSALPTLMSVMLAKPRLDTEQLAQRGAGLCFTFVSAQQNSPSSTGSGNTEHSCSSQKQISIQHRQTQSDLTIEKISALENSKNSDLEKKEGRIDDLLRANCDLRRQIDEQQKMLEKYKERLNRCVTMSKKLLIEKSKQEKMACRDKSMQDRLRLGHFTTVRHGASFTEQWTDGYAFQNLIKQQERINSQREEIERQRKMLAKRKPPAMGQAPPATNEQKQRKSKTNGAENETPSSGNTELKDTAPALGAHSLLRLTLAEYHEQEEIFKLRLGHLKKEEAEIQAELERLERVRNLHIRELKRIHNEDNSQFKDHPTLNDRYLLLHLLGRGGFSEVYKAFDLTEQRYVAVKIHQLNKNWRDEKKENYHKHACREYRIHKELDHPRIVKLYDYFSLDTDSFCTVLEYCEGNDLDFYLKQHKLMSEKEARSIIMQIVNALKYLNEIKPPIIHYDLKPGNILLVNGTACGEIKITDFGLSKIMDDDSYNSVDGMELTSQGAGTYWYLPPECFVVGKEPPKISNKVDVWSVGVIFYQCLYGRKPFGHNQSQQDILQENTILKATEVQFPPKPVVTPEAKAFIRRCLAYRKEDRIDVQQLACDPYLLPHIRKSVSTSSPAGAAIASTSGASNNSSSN

[11] = biological target: Platelet-derived growth factor receptor alpha (Homo sapiens) (UniProt P16234); assay: Inhibition of human recombinant PDGFRa at 40 nM related to control ULK1
Sequence of Platelet-derived growth factor receptor alpha (Homo sapiens) (P16234 whole entry): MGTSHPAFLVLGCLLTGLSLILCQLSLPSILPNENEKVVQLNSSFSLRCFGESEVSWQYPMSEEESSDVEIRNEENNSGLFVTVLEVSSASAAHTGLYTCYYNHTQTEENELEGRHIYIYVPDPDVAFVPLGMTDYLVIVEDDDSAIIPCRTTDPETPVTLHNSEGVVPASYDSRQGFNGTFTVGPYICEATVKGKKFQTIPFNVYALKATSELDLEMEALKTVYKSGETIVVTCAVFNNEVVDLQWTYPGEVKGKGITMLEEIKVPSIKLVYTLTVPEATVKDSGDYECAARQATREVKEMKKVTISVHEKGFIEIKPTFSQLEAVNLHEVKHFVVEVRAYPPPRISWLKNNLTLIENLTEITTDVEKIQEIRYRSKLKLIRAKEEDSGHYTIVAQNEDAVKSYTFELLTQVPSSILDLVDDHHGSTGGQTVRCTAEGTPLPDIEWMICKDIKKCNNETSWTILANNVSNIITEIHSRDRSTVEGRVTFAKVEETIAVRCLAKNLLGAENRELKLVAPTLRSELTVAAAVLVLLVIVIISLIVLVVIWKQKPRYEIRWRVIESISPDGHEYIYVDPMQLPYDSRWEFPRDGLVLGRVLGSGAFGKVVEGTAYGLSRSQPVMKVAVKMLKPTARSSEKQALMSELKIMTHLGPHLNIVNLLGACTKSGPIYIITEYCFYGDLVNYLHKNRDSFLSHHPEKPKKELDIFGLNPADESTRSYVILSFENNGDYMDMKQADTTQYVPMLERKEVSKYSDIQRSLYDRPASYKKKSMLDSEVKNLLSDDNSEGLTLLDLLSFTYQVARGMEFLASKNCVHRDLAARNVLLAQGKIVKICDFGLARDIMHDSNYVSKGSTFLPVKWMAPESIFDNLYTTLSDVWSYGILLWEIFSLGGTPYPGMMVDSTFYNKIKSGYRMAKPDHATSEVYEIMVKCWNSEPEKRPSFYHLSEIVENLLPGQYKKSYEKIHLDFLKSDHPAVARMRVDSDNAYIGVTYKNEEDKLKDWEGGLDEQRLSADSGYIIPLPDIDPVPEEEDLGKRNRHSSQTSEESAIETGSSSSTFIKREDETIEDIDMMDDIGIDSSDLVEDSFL

[12] = biological target: Interferon-induced, double-stranded RNA-activated protein kinase (Homo sapiens) (UniProt P19525); assay: Inhibition of human recombinant PKR at 40 nM in presence of ATP by radiometric assay relative to control
Sequence of Interferon-induced, double-stranded RNA-activated protein kinase (Homo sapiens) (P19525 whole entry): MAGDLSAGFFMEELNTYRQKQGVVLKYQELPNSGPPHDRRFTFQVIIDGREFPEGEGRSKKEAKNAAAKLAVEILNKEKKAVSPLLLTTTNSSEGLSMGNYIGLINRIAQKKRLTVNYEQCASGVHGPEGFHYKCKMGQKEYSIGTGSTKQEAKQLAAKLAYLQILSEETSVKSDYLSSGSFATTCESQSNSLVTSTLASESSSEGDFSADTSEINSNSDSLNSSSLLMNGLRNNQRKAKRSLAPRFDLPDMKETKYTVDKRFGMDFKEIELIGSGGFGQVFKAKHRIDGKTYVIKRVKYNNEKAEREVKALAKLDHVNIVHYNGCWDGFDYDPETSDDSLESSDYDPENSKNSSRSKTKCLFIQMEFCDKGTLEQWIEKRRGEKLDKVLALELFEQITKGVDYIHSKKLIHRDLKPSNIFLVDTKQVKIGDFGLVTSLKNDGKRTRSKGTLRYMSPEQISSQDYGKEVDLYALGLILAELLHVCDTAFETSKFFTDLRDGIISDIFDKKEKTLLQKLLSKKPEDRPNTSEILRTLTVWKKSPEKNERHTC

[13] = biological target: Cyclin-dependent kinase 7 (Homo sapiens) (UniProt P50613); assay: Inhibition of human recombinant CDK7 at 40 nM in presence of ATP by radiometric assay relative to control
[14] = biological target: Mitogen-activated protein kinase kinase kinase 20 (Homo sapiens) (UniProt Q9NYL2); assay: Inhibition of human recombinant ZAK at 40 nM related to control ULK1
Sequence of Mitogen-activated protein kinase kinase kinase 20 (Homo sapiens) (Q9NYL2 2-800 limits assumed): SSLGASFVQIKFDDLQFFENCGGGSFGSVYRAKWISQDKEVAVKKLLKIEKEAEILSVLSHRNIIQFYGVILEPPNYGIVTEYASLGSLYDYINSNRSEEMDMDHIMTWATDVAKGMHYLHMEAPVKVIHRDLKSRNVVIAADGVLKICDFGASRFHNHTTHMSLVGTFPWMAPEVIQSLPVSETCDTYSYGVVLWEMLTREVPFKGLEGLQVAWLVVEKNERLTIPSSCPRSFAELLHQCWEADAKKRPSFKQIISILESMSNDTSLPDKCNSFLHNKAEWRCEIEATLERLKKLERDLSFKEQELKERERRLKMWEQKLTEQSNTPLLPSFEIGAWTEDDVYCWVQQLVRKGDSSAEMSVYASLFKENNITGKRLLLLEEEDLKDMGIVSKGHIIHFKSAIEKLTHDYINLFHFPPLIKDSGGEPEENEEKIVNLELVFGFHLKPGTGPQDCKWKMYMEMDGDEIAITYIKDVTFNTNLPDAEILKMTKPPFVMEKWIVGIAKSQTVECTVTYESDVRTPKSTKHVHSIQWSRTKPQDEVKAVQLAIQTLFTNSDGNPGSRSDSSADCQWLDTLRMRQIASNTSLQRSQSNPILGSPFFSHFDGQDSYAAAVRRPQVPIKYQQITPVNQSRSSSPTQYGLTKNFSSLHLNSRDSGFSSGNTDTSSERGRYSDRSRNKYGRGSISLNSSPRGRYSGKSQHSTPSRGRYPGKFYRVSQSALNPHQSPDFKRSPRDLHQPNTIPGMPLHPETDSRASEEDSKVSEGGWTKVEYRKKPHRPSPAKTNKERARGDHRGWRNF

[15] = biological target: T2, Rhodopsin kinase GRK1 (Homo sapiens) (UniProt Q15835); assay: Inhibition of human recombinant RHOK at 40 nM related to control ULK1
T2 sequence (whole entry): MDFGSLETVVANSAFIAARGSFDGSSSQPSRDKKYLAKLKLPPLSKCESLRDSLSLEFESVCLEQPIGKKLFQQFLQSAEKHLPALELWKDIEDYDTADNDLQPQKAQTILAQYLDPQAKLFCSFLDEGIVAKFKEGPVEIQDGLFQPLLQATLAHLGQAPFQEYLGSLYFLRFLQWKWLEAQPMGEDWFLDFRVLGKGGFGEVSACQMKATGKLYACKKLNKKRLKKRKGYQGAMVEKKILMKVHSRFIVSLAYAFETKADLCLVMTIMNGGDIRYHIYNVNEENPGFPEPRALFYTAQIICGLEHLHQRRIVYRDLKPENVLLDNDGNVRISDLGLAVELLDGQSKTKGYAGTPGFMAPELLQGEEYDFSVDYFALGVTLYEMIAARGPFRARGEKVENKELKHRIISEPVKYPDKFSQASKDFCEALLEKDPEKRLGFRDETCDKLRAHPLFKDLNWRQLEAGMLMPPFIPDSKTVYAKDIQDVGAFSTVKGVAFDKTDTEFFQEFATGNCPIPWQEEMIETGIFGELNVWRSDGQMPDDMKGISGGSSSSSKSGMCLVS

[16] = biological target: Serine/threonine-protein kinase NIM1 (Homo sapiens) (UniProt Q8IY84); assay: Inhibition of human recombinant NIM1 at 40 nM in presence of ATP by radiometric assay relative to control
Sequence of Serine/threonine-protein kinase NIM1 (Homo sapiens) (Q8IY84 whole entry): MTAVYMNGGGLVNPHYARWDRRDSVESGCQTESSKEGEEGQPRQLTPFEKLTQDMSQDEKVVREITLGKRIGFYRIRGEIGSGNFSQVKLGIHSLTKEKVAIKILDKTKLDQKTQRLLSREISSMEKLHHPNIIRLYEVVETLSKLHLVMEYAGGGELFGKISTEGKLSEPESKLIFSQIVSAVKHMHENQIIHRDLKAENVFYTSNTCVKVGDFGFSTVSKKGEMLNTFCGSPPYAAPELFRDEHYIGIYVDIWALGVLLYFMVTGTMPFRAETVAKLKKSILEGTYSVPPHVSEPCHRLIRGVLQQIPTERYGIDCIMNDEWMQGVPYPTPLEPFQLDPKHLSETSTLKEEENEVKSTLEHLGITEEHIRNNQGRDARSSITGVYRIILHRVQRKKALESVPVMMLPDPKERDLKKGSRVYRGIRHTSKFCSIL

[17] = biological target: Protein kinase C beta type (Homo sapiens) (UniProt P05771); assay: Inhibition of human recombinant PKCb at 40 nM related to control ULK1
Sequence of Protein kinase C beta type (Homo sapiens) (P05771 2-671 limits assumed): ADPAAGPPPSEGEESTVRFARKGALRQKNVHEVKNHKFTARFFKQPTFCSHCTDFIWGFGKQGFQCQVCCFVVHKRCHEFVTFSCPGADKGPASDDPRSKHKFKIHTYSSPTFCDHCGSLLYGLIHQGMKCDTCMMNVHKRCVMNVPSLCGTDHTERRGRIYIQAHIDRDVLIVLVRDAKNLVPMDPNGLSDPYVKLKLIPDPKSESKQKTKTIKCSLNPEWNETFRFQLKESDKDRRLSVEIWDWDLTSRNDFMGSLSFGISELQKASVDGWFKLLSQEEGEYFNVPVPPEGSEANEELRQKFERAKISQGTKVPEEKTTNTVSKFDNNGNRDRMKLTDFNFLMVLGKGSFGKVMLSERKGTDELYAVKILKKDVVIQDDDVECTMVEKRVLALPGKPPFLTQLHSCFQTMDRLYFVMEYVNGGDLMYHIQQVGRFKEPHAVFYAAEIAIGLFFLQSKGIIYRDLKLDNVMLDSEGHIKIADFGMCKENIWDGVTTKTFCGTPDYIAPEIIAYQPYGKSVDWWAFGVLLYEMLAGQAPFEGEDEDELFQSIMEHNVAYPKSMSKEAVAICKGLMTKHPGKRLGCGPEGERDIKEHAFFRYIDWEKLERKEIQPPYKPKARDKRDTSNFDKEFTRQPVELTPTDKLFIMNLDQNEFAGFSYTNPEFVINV

[18] = biological target: Tau-tubulin kinase 2 (Homo sapiens) (UniProt Q6IQ55); assay: Inhibition of human recombinant TTBK2 at 40 nM related to control ULK1

- inhibition [1]: 0%
- fold change (FC) [2]: 0
- inhibition [3]: 0%
- inhibition [4]: 1%
SMILES: CNC(=O)c1ccccc1Oc1nc(Nc2cc(OC)c(OC)c(OC)c2)ncc1Br

- fold change (FC) [5]: 0
- inhibition [6]: 15%
SMILES: CC(C)[C@H](NC(=O)c1cc(-c2cnn3cc(-c4ccc(OCCN5CCCCC5)cc4)cnc23)cs1)C(F)(F)F

- inhibition [7]: 0%
- inhibition [8]: 0%
- fold change (FC) [9]: 0
- inhibition [10]: 0%
- fold change (FC) [11]: 0
- inhibition [12]: 0%
- inhibition [13]: 23%
- fold change (FC) [14]: 0
- fold change (FC) [15]: 0.01
- inhibition [16]: 0%
- fold change (FC) [17]: 0.04
- fold change (FC) [18]: 0
SMILES: O=C(N[C@@H](C1CC1)C(F)(F)F)c1cc(-c2cnn3cc(-c4ccc(F)cc4)cnc23)cs1
